{"source": "PubChem BioAssay AID2060891", "about": "(Molecular Pharmacology Branch, DTP, NCI, 2025)", "tested_on": "K98450-129-R-PDC complex spheroid growth, percent test/control", "experiment": "Anticancer human tumor K98450-129-R-PDC patient-derived colon adenocarcinoma cell line growth inhibition [RAS]", "conditions": "for viability, T/C: stronger effect = lower value", "method_in_brief": "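Agents were tested in combination matrices in half-log decrements from a top concentration at or near clinical Cmax (10 microM if undetermined). Targets were multi-cell spheroids of tumour lines plus HUVEC and MSC stromal cells.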"}
{"compound": "C=CC(=O)Nc1cc(Nc2nccc(-c3cn(C)c4ccccc34)n2)c(OC)cc1N(C)CCN(C)C", "note": "+ CCn1c(-c2cc(N3CCN(C)CC3)cnc2C(C)OC)c2c3cc(ccc31)-c1csc(n1)CC(NC(=O)C1CC1C)C(=O)N1CCCC(N1)C(=O)OCC(C)(C)C2;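 further: spheroids exposed to agents for seven days before the viability readout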;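 on viability, T/C: luminescence used as a proxy for viable cell amount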", "values": [{"measurement": "IC50", "setting": "curve of first compound, second compound 0.000949 µM", "value": 336, "unit": "nM"}, {"measurement": "IC50", "setting": "curve of first compound, second compound 0.003 µM", "value": 209, "unit": "nM"}, {"measurement": "IC50", "setting": "curve of first compound, second compound 0.00949 µM", "value": 89.7, "unit": "nM"}, {"measurement": "IC50", "setting": "curve of first compound, second compound 0.03 µM", "value": "< 3.16", "unit": "nM"}, {"measurement": "IC50", "setting": "curve of first compound, second compound 0.0949 µM", "value": "< 3.16", "unit": "nM"}, {"measurement": "IC50", "setting": "curve of first compound, second compound 0.3 µM", "value": "< 3.16", "unit": "nM"}, {"measurement": "viability, T/C", "setting": "second compound 0.000949 µM, first compound 0.00316 µM", "value": 91.9, "unit": "%"}, {"measurement": "viability, T/C", "setting": "second compound 0.000949 µM, first compound 0.01 µM", "value": 89.4, "unit": "%"}, {"measurement": "viability, T/C", "setting": "second compound 0.000949 µM, first compound 0.0316 µM", "value": 94.1, "unit": "%"}, {"measurement": "viability, T/C", "setting": "second compound 0.000949 µM, first compound 0.1 µM", "value": 73.6, "unit": "%"}, {"measurement": "viability, T/C", "setting": "second compound 0.000949 µM, first compound 0.316 µM", "value": 52.8, "unit": "%"}, {"measurement": "viability, T/C", "setting": "second compound 0.000949 µM, first compound 1 µM", "value": 22.7, "unit": "%"}, {"measurement": "viability, T/C", "setting": "second compound 0.003 µM, first compound 0.00316 µM", "value": 93, "unit": "%"}, {"measurement": "viability, T/C", "setting": "second compound 0.003 µM, first compound 0.01 µM", "value": 92, "unit": "%"}, {"measurement": "viability, T/C", "setting": "second compound 0.003 µM, first compound 0.0316 µM", "value": 72.8, "unit": "%"}, {"measurement": "viability, T/C", "setting": "second compound 0.003 µM, first compound 0.1 µM", "value": 66.8, "unit": "%"}, {"measurement": "viability, T/C", "setting": "second compound 0.003 µM, first compound 0.316 µM", "value": 41.8, "unit": "%"}, {"measurement": "viability, T/C", "setting": "second compound 0.003 µM, first compound 1 µM", "value": 13.6, "unit": "%"}, {"measurement": "viability, T/C", "setting": "second compound 0.00949 µM, first compound 0.00316 µM", "value": 74.9, "unit": "%"}, {"measurement": "viability, T/C", "setting": "second compound 0.00949 µM, first compound 0.01 µM", "value": 65.2, "unit": "%"}, {"measurement": "viability, T/C", "setting": "second compound 0.00949 µM, first compound 0.0316 µM", "value": 65.6, "unit": "%"}, {"measurement": "viability, T/C", "setting": "second compound 0.00949 µM, first compound 0.1 µM", "value": 49, "unit": "%"}, {"measurement": "viability, T/C", "setting": "second compound 0.00949 µM, first compound 0.316 µM", "value": 15.2, "unit": "%"}, {"measurement": "viability, T/C", "setting": "second compound 0.00949 µM, first compound 1 µM", "value": 8.83, "unit": "%"}, {"measurement": "viability, T/C", "setting": "second compound 0.03 µM, first compound 0.00316 µM", "value": 50.5, "unit": "%"}, {"measurement": "viability, T/C", "setting": "second compound 0.03 µM, first compound 0.01 µM", "value": 49, "unit": "%"}, {"measurement": "viability, T/C", "setting": "second compound 0.03 µM, first compound 0.0316 µM", "value": 48.8, "unit": "%"}, {"measurement": "viability, T/C", "setting": "second compound 0.03 µM, first compound 0.1 µM", "value": 18.7, "unit": "%"}, {"measurement": "viability, T/C", "setting": "second compound 0.03 µM, first compound 0.316 µM", "value": 10.5, "unit": "%"}, {"measurement": "viability, T/C", "setting": "second compound 0.03 µM, first compound 1 µM", "value": 7.69, "unit": "%"}, {"measurement": "viability, T/C", "setting": "second compound 0.0949 µM, first compound 0.00316 µM", "value": 21, "unit": "%"}, {"measurement": "viability, T/C", "setting": "second compound 0.0949 µM, first compound 0.01 µM", "value": 18.5, "unit": "%"}, {"measurement": "viability, T/C", "setting": "second compound 0.0949 µM, first compound 0.0316 µM", "value": 14.1, "unit": "%"}, {"measurement": "viability, T/C", "setting": "second compound 0.0949 µM, first compound 0.1 µM", "value": 10.6, "unit": "%"}, {"measurement": "viability, T/C", "setting": "second compound 0.0949 µM, first compound 0.316 µM", "value": 8.27, "unit": "%"}, {"measurement": "viability, T/C", "setting": "second compound 0.0949 µM, first compound 1 µM", "value": 7.06, "unit": "%"}, {"measurement": "viability, T/C", "setting": "second compound 0.3 µM, first compound 0.00316 µM", "value": 12.9, "unit": "%"}, {"measurement": "viability, T/C", "setting": "second compound 0.3 µM, first compound 0.01 µM", "value": 11.8, "unit": "%"}, {"measurement": "viability, T/C", "setting": "second compound 0.3 µM, first compound 0.0316 µM", "value": 11.4, "unit": "%"}, {"measurement": "viability, T/C", "setting": "second compound 0.3 µM, first compound 0.1 µM", "value": 8.91, "unit": "%"}, {"measurement": "viability, T/C", "setting": "second compound 0.3 µM, first compound 0.316 µM", "value": 7.33, "unit": "%"}, {"measurement": "viability, T/C", "setting": "second compound 0.3 µM, first compound 1 µM", "value": 7.02, "unit": "%"}]}
{"compound": "O=C(c1ccc(F)c(F)c1Nc1ccc(I)cc1F)N1CC(O)([C@@H]2CCCCN2)C1", "values": [{"measurement": "viability, T/C", "setting": "compound 0.00316 µM", "value": "103% [middle of 4 runs]"}, {"measurement": "viability, T/C", "setting": "compound 0.0316 µM", "value": "97.5% [middle of 4 runs]"}, {"measurement": "viability, T/C", "setting": "compound 0.1 µM", "value": "82.3% [middle of 4 runs]"}, {"measurement": "viability, T/C", "setting": "compound 0.316 µM", "value": "21.8% [middle of 4 runs]"}, {"measurement": "viability, T/C", "setting": "compound 1 µM", "value": "3.22% [middle of 4 runs]"}, {"measurement": "IC50", "setting": "curve of compound", "value": "190 nM [middle of 4 runs]"}]}
{"compound": "CC1(C)CCC(Nc2ncc(C(F)(F)F)c(-c3c[nH]c4c(P(C)(C)=O)c(C#N)ccc34)n2)CN1", "note": "(stereo not given) + C=CC(=O)N1CCN(c2nc(OCC3CCCN3C)nc3c(F)c(-c4nc(N)cc(C)c4C(F)(F)F)c(Cl)cc23)C(C)C1", "values": [{"measurement": "IC50", "setting": "curve of first compound, second compound 0.00316 µM", "value": "> 300", "unit": "nM"}, {"measurement": "IC50", "setting": "curve of first compound, second compound 0.01 µM", "value": 270, "unit": "nM"}, {"measurement": "IC50", "setting": "curve of first compound, second compound 0.0316 µM", "value": 166, "unit": "nM"}, {"measurement": "IC50", "setting": "curve of first compound, second compound 0.1 µM", "value": 72.1, "unit": "nM"}, {"measurement": "IC50", "setting": "curve of first compound, second compound 0.316 µM", "value": "< 0.949", "unit": "nM"}, {"measurement": "IC50", "setting": "curve of first compound, second compound 1 µM", "value": "< 0.949", "unit": "nM"}, {"measurement": "viability, T/C", "setting": "second compound 0.00316 µM, first compound 0.000949 µM", "value": 99.3, "unit": "%"}, {"measurement": "viability, T/C", "setting": "second compound 0.00316 µM, first compound 0.003 µM", "value": 100, "unit": "%"}, {"measurement": "viability, T/C", "setting": "second compound 0.00316 µM, first compound 0.00949 µM", "value": 97.8, "unit": "%"}, {"measurement": "viability, T/C", "setting": "second compound 0.00316 µM, first compound 0.03 µM", "value": 97.6, "unit": "%"}, {"measurement": "viability, T/C", "setting": "second compound 0.00316 µM, first compound 0.0949 µM", "value": 84.2, "unit": "%"}, {"measurement": "viability, T/C", "setting": "second compound 0.00316 µM, first compound 0.3 µM", "value": 53.7, "unit": "%"}, {"measurement": "viability, T/C", "setting": "second compound 0.01 µM, first compound 0.000949 µM", "value": 86.4, "unit": "%"}, {"measurement": "viability, T/C", "setting": "second compound 0.01 µM, first compound 0.003 µM", "value": 87.3, "unit": "%"}, {"measurement": "viability, T/C", "setting": "second compound 0.01 µM, first compound 0.00949 µM", "value": 84.2, "unit": "%"}, {"measurement": "viability, T/C", "setting": "second compound 0.01 µM, first compound 0.03 µM", "value": 86.2, "unit": "%"}, {"measurement": "viability, T/C", "setting": "second compound 0.01 µM, first compound 0.0949 µM", "value": 70.6, "unit": "%"}, {"measurement": "viability, T/C", "setting": "second compound 0.01 µM, first compound 0.3 µM", "value": 47.5, "unit": "%"}, {"measurement": "viability, T/C", "setting": "second compound 0.0316 µM, first compound 0.000949 µM", "value": 70.5, "unit": "%"}, {"measurement": "viability, T/C", "setting": "second compound 0.0316 µM, first compound 0.003 µM", "value": 76.3, "unit": "%"}, {"measurement": "viability, T/C", "setting": "second compound 0.0316 µM, first compound 0.00949 µM", "value": 77.3, "unit": "%"}, {"measurement": "viability, T/C", "setting": "second compound 0.0316 µM, first compound 0.03 µM", "value": 76, "unit": "%"}, {"measurement": "viability, T/C", "setting": "second compound 0.0316 µM, first compound 0.0949 µM", "value": 58.5, "unit": "%"}, {"measurement": "viability, T/C", "setting": "second compound 0.0316 µM, first compound 0.3 µM", "value": 41.2, "unit": "%"}, {"measurement": "viability, T/C", "setting": "second compound 0.1 µM, first compound 0.000949 µM", "value": 60.1, "unit": "%"}, {"measurement": "viability, T/C", "setting": "second compound 0.1 µM, first compound 0.003 µM", "value": 54.5, "unit": "%"}, {"measurement": "viability, T/C", "setting": "second compound 0.1 µM, first compound 0.00949 µM", "value": 56.1, "unit": "%"}, {"measurement": "viability, T/C", "setting": "second compound 0.1 µM, first compound 0.03 µM", "value": 59, "unit": "%"}, {"measurement": "viability, T/C", "setting": "second compound 0.1 µM, first compound 0.0949 µM", "value": 46, "unit": "%"}, {"measurement": "viability, T/C", "setting": "second compound 0.1 µM, first compound 0.3 µM", "value": 34.5, "unit": "%"}, {"measurement": "viability, T/C", "setting": "second compound 0.316 µM, first compound 0.000949 µM", "value": 41.1, "unit": "%"}, {"measurement": "viability, T/C", "setting": "second compound 0.316 µM, first compound 0.003 µM", "value": 41.3, "unit": "%"}, {"measurement": "viability, T/C", "setting": "second compound 0.316 µM, first compound 0.00949 µM", "value": 40.6, "unit": "%"}, {"measurement": "viability, T/C", "setting": "second compound 0.316 µM, first compound 0.03 µM", "value": 41.3, "unit": "%"}, {"measurement": "viability, T/C", "setting": "second compound 0.316 µM, first compound 0.0949 µM", "value": 37.8, "unit": "%"}, {"measurement": "viability, T/C", "setting": "second compound 0.316 µM, first compound 0.3 µM", "value": 31, "unit": "%"}, {"measurement": "viability, T/C", "setting": "second compound 1 µM, first compound 0.000949 µM", "value": 35.1, "unit": "%"}, {"measurement": "viability, T/C", "setting": "second compound 1 µM, first compound 0.003 µM", "value": 33.3, "unit": "%"}, {"measurement": "viability, T/C", "setting": "second compound 1 µM, first compound 0.00949 µM", "value": 35.1, "unit": "%"}, {"measurement": "viability, T/C", "setting": "second compound 1 µM, first compound 0.03 µM", "value": 33.8, "unit": "%"}, {"measurement": "viability, T/C", "setting": "second compound 1 µM, first compound 0.0949 µM", "value": 32.9, "unit": "%"}, {"measurement": "viability, T/C", "setting": "second compound 1 µM, first compound 0.3 µM", "value": 32.5, "unit": "%"}]}
